Laboratory results published in US10422775B2, “Methods for determining relative response factors for impurity analysis using liquid chromatography with absorbance and evaporative light scattering detection” (Waters Technologies Corporation, priority 2016, dated 2019).
“And” between values parts separate entries of the source, which are not always exact repeats. Equal values may be shown once. Each block holds one compound with its values, some of them ahead of it.

What was measured:
[1] = Quantitation of by-product 4-methylcyclohexylamine by MS (SIR m/z 114.1) in acidic degradation of glimepiride; assay type: physicochemical; settings: for 4-MeCHA / 4-MeCHA (%): by-product formed from glimepiride, acidic degradation
Method: (§1) The separation of glimepiride and related compounds B and C was achieved on a 2.1 mm×50 mm, 1.8 μm, ACQUITY UPLC HSS T3 C18 column (Waters Corporation) under isocratic conditions. The mobile phase was 0.1% (v/v) formic acid in 60:40 water/acetonitrile at a flow rate of 0.8 mL/min. The column temperature was 30° C. with mobile phase pre-heating. Injection volume was 4 μL. The PDA settings included wavelength of 228 nm, sampling rate of 20 points per second. The ELSD was set to a gas pressure of 25 psi, the nebulizer in Cooling mode, drift tube temperature of 55° C. and the gain set to 100 with a data rate of 10 points per second. The make-up pump was used for post-column addition of solvent using the ISM at a flow rate of 0.3 mL/min with 0.1% (v/v) formic acid in methanol. The mass detector (ACQUITY QDa, Waters Corp, USA) utilized positive electrospray ionization (ESI+), with a cone voltage set to 5 V. The capillary voltage was 1.4 kV and the sampling rate was 5 points per second. The mass range collected was 100-600 Da with additional single ion recording (SIR) channels were collected simultaneously for the following m/z=114.1 Da, 374.6 Da, 432.2 Da and 513.7 Da. The SIR channels were measured with a cone voltage of 5 V.
Additionally, standards of 4-Methylcylohexylamine for quantitation by mass spectrometry. Specifically, a solution of 4-methylcylcohexylamine was prepared at a concentration of 0.4 mg/mL in 25:75 water/methanol. Working standards were then prepared by diluting the stock with 25:75 water/methanol. Individual calibration standards were prepared in triplicate at 0.04% (w/w), 0.2%, 0.5%, 1%, 2% and 5%, of the sample concentration of 0.250 mg/mL. The labeled purity of 4-methylcylcohexylamine was 99.7%.
Mass detection was employed for confirmation of the degradation pathway and to reconcile mass balance differences. During the formation of both related compound B and related compound C, there is a loss of 4-methylcyclohexylamine (see FIG. 14).
Quantitation of 4-methylcyclohexylamine was achieved utilizing standards prepared from commercially available reagents. Working standards were prepared to cover the range from 0.04 to 10% (0.1 to 25 ug/mL). A single ion recording channel measuring the response for m/z=114.1 Da was used for quantitation. The working standard was present as a mixture of both the cis and trans geometric isomers. These isomers were partially separated chromatographically, therefore the sum of the isomers was used for the calibration curve. The calibration curve was quadratic and converted to a linear relationship using a log-log fit over the desired quantitation range with the parameters listed in the following table.
Using the calibration curve, 4-methylcylcohexylamine was quantified in the acidic and oxidative degradation reactions over the period of 5 days.

[2] = Example 2: forced degradation of glimepiride drug substance under basic hydrolysis conditions, UV % impurities and mass balance; assay type: physicochemical; settings: for % Area (impurity peaks found in base hydrolysis): degradation peak in glimepiride drug substance
Method: (§2) The chromatographic system was an ultra-high performance liquid chromatography system, specifically, an ACQUITY UPLC H-Class system with a pump (ACQUITY Quaternary Solvent Manager (QSM)), an injector (ACQUITY Flow Through Needle (FTN) Autosampler) and a column manager (ACQUITY Column Manager). The autosampler was configured with a 50 μL extension loop. The seal wash was 90:10 water/methanol, purge solvent was methanol and the needle wash solvent was 0.1% (v/v) formic acid in 30:70 water/acetonitrile. Detection was performed with a photodiode array detector (ACQUITY UPLC PDA), an evaporative light scattering detector (ACQUITY UPLC ELSD) and a mass detector (ACQUITY QDa) (Waters, Milford, Mass.). The eluent flow path was plumbed from the column to a triple static tee (1:10 split flow) housed within a secondary pump (ACQUITY Isocratic Solvent Manager (ISM)). The tubing from the column to the tee was 22.5″ of 0.004″ ID tubing. In the first split, a portion of the flow was diverted to the PDA with 16″ of 100 μm ID fused silica tubing and then, in series, to the ELS detector with 12″ of 0.004″ ID PEEK tubing. Flow from the isocratic solvent manager was introduced into the second splitter, and the final portion of flow was diverted to the mass spectrometer via the detector probe (250 mm). The chromatography data system was Empower 3 FR3 (Waters, Milford, Mass.). The forced degradation was performed using a water bath (Isotemp) purchased from Fisher Scientific.
as §1
(§3) Over a period of 7 days, the drug substance was exposed to acidic, basic and oxidative conditions with goals of achieving approximately 10% degradation as quantified by UV. The samples were tested at 2 day intervals and analyzed by UV-ELS and MS.
Under basic hydrolysis conditions, the drug substance degraded rapidly, over a period of 1 day with >10% of degradation. […] In contrast to the previously described analyses, many smaller impurity peaks were observed.
(§4) Mass balance calculations were performed using the experimentally determined RRFs for acidic, oxidative and basic degradation conditions. […] Both the % impurity and recovery were impacted similarly, however, the implications for % impurity are greater, in that impurity reporting, identification and qualification thresholds can be impacted by as little as 0.05%.

[3] = cited from earlier work
[4] = Example 1: forced degradation (acid hydrolysis) of glimepiride with mass balance by UPLC-PDA using RRF; assay type: physicochemical; set-up: Amount: unit not given beside the values; settings: acid hydrolysis 40° C.
Method: The controls and the samples that underwent acid hydrolysis were subjected to the following conditions.
Samples were analyzed using an ultra-high performance liquid chromatography system, specifically the ACUITY UPLC H-Class system from Waters Technologies Corporation. The system included photodiode array (PDA) and ELSD detectors, a quadrapole mass detector, specifically the Qda detector from Waters Technologies Corporation, and solvent and column managers. The PDA detector was used as a detector for UV-Vis absorbance. An ultra-high performance liquid chromatography column with 1.7 μm particle size and 2.1×50 mm column dimensions, specifically the ACUITY UPLC BEH C18 column from Waters Technologies Corporation, was used. The isocratic solvent manager was used with a flow rate of 0.3 mL/min and with 0.1% formic acid in methanol as a solvent. The following settings were used for the PDA and ELSD detectors.
Isocratic and gradients methods were developed for separation of impurities; however, the isocratic method was preferred as changing the solvent composition can affect the response and the size of droplets in ELSD. Mobile phase A was 0.1% (v/v) formic acid in water. Mobile phase B was 0.1% (v/v) formic acid in acetonitrile. The column temperature was 30° C. The injection volume was 2 μL. The flow rate was 0.8 mL/min. The isocratic tests included 60% mobile phase A and 40% mobile phase B. Conditions for the gradient tests are listed below. The system has a quaternary pump with four channels; however, only the A and B channels were used, which is why the C and D values are zero in the table below.
Two degradation impurities were present, which were labeled related compound B and related compound C. To ensure adequate separation and no co-elutions, peak purity was evaluated using a mass analysis window. FIG. 9 includes PDA peak purity and Mass analysis windows in the EMPOWER 3 data analysis software used to evaluate peak purity.
RRFs were calculated for the two impurities and the reciprocal of the RRF was used as a correction factor for each impurity to determine a corrected peak area for the impurity according to the following equation.
A reference sample was run by HPLC and the total corrected PDA peak area was determined for the reference sample as described below. The correction factor of the reciprocal of the RRF for an impurity was used to determine a corrected PDA peak area for each impurity in the reference sample. The total corrected PDA peak area was the sum of the corrected PDA peak area for each impurity and the PDA peak area for the API glimepiride. This total corrected PDA peak is the value used to calculate percentage recovery. Total Corrected peak area=peak areaAPI+ΣimpuritiesCorrected peak areaimpurity (8)
The degraded samples were run by HPLC and the correction factor of the reciprocal RRF for an impurity was used to obtain a corrected PDA peak area for each impurity in each degraded sample. For each degraded sample, a total corrected PDA peak area was calculated as the sum of the corrected PDA peak areas for the impurities and the PDA peak area for the API. The percentage recovery was the total corrected PDA peak area for the degraded sample divided by the total corrected peak are for the reference sample as indicated in the equation below.
Each peak area was determined based on the average of three different injections of the sample. The tables in FIG. 11 show example calculations of mass balance based on the experimental data.
The results of the molar mass balance calculations of data from the forced degradation studies using the RRF calculated in accordance with embodiments described herein are summarized in the table below and are graphically depicted in a chart in FIG. 12.

[5] = Example 2: forced degradation of glimepiride drug substance under oxidative conditions (AIBN), UV % impurities and mass balance; assay type: physicochemical; settings: for % Impurities: UV
Method: as §2, §1, §3
For example, FIG. 19 includes chromatograms from analysis of a glimepiride drug substance after 5 days of oxidation by AIBN. […] The third peak is a product of the AIBN oxidation (m/z 177.1)-*- as evidenced by analysis of the control. One of the unknown peaks present in the AIBN control (m/z=177.2 Da) was attributed to the reagent. As observed with the acidic hydrolysis of glimepiride, the by-product (m/z=114.1 Da) was also observed. In addition, the oxidation degradation produced two isobaric peaks as determined by the QDa measurement resulting in the same m/z values.
as §4, with “0.05%. […]” for “0.05%.”

[6] = cited from earlier work; remark: listed apart in the source
[7] = Example 2: forced degradation of glimepiride drug substance under acidic hydrolysis conditions, UV % impurities and mass balance; assay type: physicochemical; settings: for % Impurities: UV
Method: as §2, §1, §3
Confirmation of the impurities was provided by the mass spectrometry.
as §4

4-MeCHA ([1]; 1 day): 0.36 µg/mL
4-MeCHA (%) ([1]; 1 day): 0.14%
4-MeCHA ([1]; 3 days): 0.98 µg/mL
4-MeCHA (%) ([1]; 3 days): 0.39%
4-MeCHA ([1]; 5 days): 1.74 µg/mL
4-MeCHA (%) ([1]; 5 days): 0.70%
SMILES: CC1CCC(N)CC1 (centres unmarked) [4-MeCHA, 4-methylcyclohexylamine]

% Area (impurity peaks found in base hydrolysis) ([2]; 1 day, UV): 1.83%
SMILES: CCC1=C(C)CN(C(=O)NCCc2ccc(S(N)(=O)=O)cc2)C1=O [Related compound B, 3-Ethyl-4-methyl-2-oxo-N-(4-sulfamoylphenethyl)-2,5-dihydro-1H-pyrrole-1-carboxamide]

% Area (impurity peaks found in base hydrolysis) ([2]; 1 day, UV): not observed
SMILES: CCC1=C(C)CN(C(=O)NCCc2ccc(S(=O)(=O)NC(=O)OC)cc2)C1=O [related compound C, methyl((4-(2-(3-ethyl-4-methyl-2-oxo-2,5-dihydro-1H-pyrrole-1-carboxamido)ethyl)phenyl)sulfonyl)carbamate]

% Impurities with RRF ([2]; basic hydrolysis, 1 day): 11.99%
% Impurities with RRF ([2]; basic hydrolysis, 3 days): 31.59%
% Impurities ([2]; basic hydrolysis, 3 days, UV): 33.45%
% Impurities with RRF ([2]; basic hydrolysis, 5 days): 51.92%
Absolute Mass Balance Deficit ([4]; 1 day): −0.6
Amount ([4]; 1 day, n = 3): 239.0
Absolute Mass Balance Deficit ([4]; 3 days): −4.3
Amount ([4]; 3 days, n = 3): 242.7
Absolute Mass Balance Deficit ([4]; 5 days): −0.7
Amount ([4]; 5 days, n = 3): 239.1
Absolute Mass Balance Deficit ([4]; 7 days): −5.7
Amount ([4]; 7 days, n = 3): 244.1
Absolute Mass Balance Deficit ([4]; T = 0): 2.3
Amount ([4]; T = 0, n = 3): 236.1
% Impurities with RRF ([5]; 1 day): 1.45%
% Impurities ([5]; 1 day): 1.75%
% Impurities with RRF ([5]; 3 days): 4.05%
% Impurities ([5]; 3 days): 4.83%
% Impurities with RRF ([5]; 5 days): 6.28%
% Impurities ([5]; 5 days): 7.45%
% Impurities with RRF ([5]; 7 days): 8.42%
% Impurities ([5]; 7 days): 9.95%
increase of recoveries on adding 4-methylcylcohexylamine ([1]; acidic hydrolysis conditions, over the time period): 0.2-1.1%
% Impurities with RRF ([7]; 1 day): 1.95%
% Impurities ([7]; 1 day): 2.35%
% Impurities with RRF ([7]; 3 days): 5.14%
% Impurities ([7]; 3 days): 6.13%
% Impurities with RRF ([7]; 5 days): 8.15%
% Impurities ([7]; 5 days): 9.72% and 9.67%
% Impurities with RRF ([7]; 7 days): 16.69%
% Impurities ([7]; 7 days): 19.55%
SMILES: CCC1=C(C)CN(C(=O)NCCc2ccc(S(=O)(=O)NC(=O)NC3CCC(C)CC3)cc2)C1=O (stereo not drawn) [glimepiride, 1-[[4-[2[(3-ethyl-4-methyl-2-oxo-3pyrroline-1-carboxamido)ethyl]phenyl]-sulphony]-3-trans-(4-methylcyclohexyl)urea]]
pKa value [3]: 4.32
soluble in methanol [6]: 0.5 mg/mL
